In patent publication US20220315771A1, “REVERSIBLE CULTURAL RELIC PROTECTION MATERIAL WITH FUNCTION OF INHIBITING GROWTH OF BACTERIA AND MOLD” (SHANGHAI UNIVERSITY, priority 2019, published 2022):

System: E. coli
Assay: Bacterial resistance test: solid 1 mm cube placed in E. coli solution, growth followed by OD600
Details: E. coli solution with starting OD600 0.45

Measured: OD600 value

Protocol: B) The block was putted into an E. coli solution with an OD600 value of 0.45, and the growth of the bacteria was observed.
The antibacterial properties of bacterial in the experimental groups 1 to 5 and the control group were tested, and the OD600 values represent the growth of bacterial cells.

CCc1occc(=O)c1O [experimental group 3, ethyl maltol]
lowest: at 12 hours, control group 0.55 | at 24 hours, control group 0.48 | at 2 days, control group 0.61 | at 3 days, control group 0.47
